Test system: IKZF1, ASS1 and SALL4 recruitment to CRBN
Assay: Recruitment assessment: recruitment of any tested substrate from among IKZF1, ASS1 and SALL4
Format: cell-based
Conditions: any tested substrate at any tested compound concentration
Protocol: In this experimental set-up, cells were transfected with a construct encoding a CRBN-fusion protein and another one encoding a substrate-fusion protein. Test compound activity was assessed with increasing concentrations of test compounds (dose-response studies) to monitor the ability to promote CRBN-ligand-induced protein interaction.
Full size proteins were fused for each of the target proteins tested, except in the case of IKZF1 where isoform 7 was used. For the study, the following were used: IKZF1 recruitment: pSEL-CRBN+pMG1-IKZF1(isoform 7); ASS1 recruitment: pSEL-CRBN+pMG1-ASS1. SALL4 recruitment: pSEL-SALL4+pMG1-CRBN. […] Luciferase activity was measured 24 hours after test compound treatment using the Luciferase Assay System kit (PROMEGA, Madison, Wis.) with an Ensight plate reader (PERKIN ELMER LIFE SCIENCES, Waltham, Mass.). Data points depicted fold induction of the average luciferase activity of triplicate samples from EPO+test compound treated cells versus EPO only treated cells. Error bars represent standard deviations. Curves were fit using 4-parameter nonlinear regression in […] PRISM software.

SMILES	Recruitment Assessment
O=C1Cc2ccccc2C(=O)N1 [C15352, 4H-isoquinoline-1,3-dione]	FALSE
CC1CC(NC(=O)CNc2ccc3c(c2)C(=O)N(C2CCC(=O)NC2=O)C3)CCO1 (centres unmarked) [C12695, 2-[[2-(2,6-dioxo-3-piperidyl)-3-oxo-isoindolin-5-yl]amino]-N-(2-methyltetrahydropyran-4-yl)acetamide]	FALSE
O=C1CCC(N2Cc3ccc(NC(=O)c4ccc5cnccc5n4)cc3C2=O)C(=O)N1 (centres unmarked) [C80393, N-[2-(2,6-dioxo-3-piperidyl)-3-oxo-isoindolin-5-yl]-1,6-naphthyridine-2-carboxamide]	FALSE
CNC(=O)Nc1cccc2c1CN(C1CCC(=O)NC1=O)C2=O (centres unmarked) [C22594, 1-[2-(2,6-dioxo-3-piperidyl)-1-oxo-isoindolin-4-yl]-3-methyl-urea]	TRUE
O=C1CCC(N2Cc3cccc(-c4ccccc4)c3C2=O)C(=O)N1 (centres unmarked) [C48020, 3-(1-oxo-7-phenyl-isoindolin-2-yl)piperidine-2,6-dione]	FALSE
CN(Cc1cnn(C)c1)C(=O)CNc1ccc2c(c1)C(=O)N(C1CCC(=O)NC1=O)C2 (centres unmarked) [C95333]	FALSE
Cn1ccnc(Nc2ccc3c(c2)C(=O)N(C2CCC(=O)NC2=O)C3)c1=O (centres unmarked) [C80387, 3-[6-[(4-methyl-3-oxo-pyrazin-2-yl)amino]-1-oxo-isoindolin-2-yl] piperidine-2,6-dione]	FALSE
O=C1CCC(N2Cc3ccc(NCC(=O)N4CCCCC4)cc3C2=O)C(=O)N1 (centres unmarked) [C12581, 3-[1-oxo-6-[[2-oxo-2-(1-piperidyl)ethyl]amino]isoindolin-2-yl]piperidine-2,6-dione]	FALSE
Nc1nccc(Nc2ccc3c(c2)CN(C2CCC(=O)NC2=O)C3=O)n1 (centres unmarked) [C80375, 3-[5-[(2-aminopyrimidm-4-yl)amino]-1-oxo-isoindolin-2-yl] piperidine-2,6-dione]	FALSE
COc1ccc(Br)c2c1C(=O)N(C1CCC(=O)NC1=O)C2 (centres unmarked) [C74668, 3-(4-bromo-7-methoxy-1-oxo-isoindolin-2-yl)piperidine-2,6-dione]	FALSE
NC(=O)Nc1cccc2c1CN(C1CCC(=O)NC1=O)C2=O (centres unmarked) [C29490, [2-(2,6-dioxo-3-piperidyl)-1-oxo-isoindolin-4-yl]urea]	TRUE
CN(C)CC(=O)Nc1ccc2c(c1)C(=O)N(C1CCC(=O)NC1=O)C2 (centres unmarked) [C49708, 2-(dimethylamino)-N-[2-(2,6-dioxo-3-piperidyl)-3-oxo-isoindolin-5-yl]acetamide]	FALSE
O=C1CCC(N2C(=O)c3ccccc3C2OC2CCCCC2)C(=O)N1 (centres unmarked) [3-[1-(cyclohexoxy)-3-oxo-isoindolin-2-yl]piperidine-2,6-dione]	FALSE
O=C1CCc2cc(C(=O)N3CCCc4ccccc43)cnc2N1 [C36126, 6-(3,4-dihydro-2H-quinoline-1-carbonyl)-3,4-dihydro-1H-1,8-naphthyridin-2-one]	FALSE
O=C1CCC(N2Cn3c(cccc3=O)C2=O)C(=O)N1 (centres unmarked) [C60651, 2-(2,6-dioxo-3-piperidyl)-3H-imidazo[1,5-a]pyridine-1,5-dione]	FALSE
O=C1CCC(N2Cc3ccc(NC(=O)C4=C5C=CN=C5N=CC4)cc3C2=O)C(=O)N1 (centres unmarked) [C80395, N-[2-(2,6-dioxo-3-piperidyl)-3-oxo-isoindolin-5-yl]-5H-pyrrolo [2,3-b]pyridine-4-carboxamide]	TRUE
O=C1CCC(N2Cc3ccc(Nc4cnc5ccccc5n4)cc3C2=O)C(=O)N1 (centres unmarked) [C80386, 3-[1-oxo-6-(quinoxalin-2-ylamino)isoindolin-2-yl]piperidine-2,6-dione]	FALSE
Cc1c(N)cccc1C(=O)NC1CCC(=O)NC1=O (centres unmarked) [C38930, 3-amino-N-(2,6-dioxo-3-piperidyl)-2-methyl-benzamide]	FALSE
O=C1CCC(N2C(=O)CCC2=O)C(=O)N1 (centres unmarked) [C14950, 3-(2,5-dioxopyrrolidin-1-yl)piperidine-2,6-dione]	FALSE
O=C1CCC(N2Cc3ccc(NC(=O)c4ccc5ccccc5n4)cc3C2=O)C(=O)N1 (centres unmarked) [C80392, N-[2-(2,6-dioxo-3-piperidyl)-3-oxo-isoindolin-5-yl]quinoline-2-carboxamide]	FALSE
Nc1cccc2c1C(=O)N(C1CCC(=O)NC1=O)C2 (centres unmarked) [3-(7-amino-1-oxo-isoindolin-2-yl)piperidine-2,6-dione]	TRUE

SMILES	Recruitment Assessment
O=C1CCC(N2C(=O)CC3(Cc4ccccc4C3)C2=O)C(=O)N1 (centres unmarked) [C64329, 1′-(2,6-dioxo-3-piperidyl)spiro[indane-2,3′-pyrrolidine]-2′,5′-dione]	FALSE
COc1ccc(C2c3ccccc3C(=O)N2C2CCC(=O)NC2=O)cc1 (centres unmarked) [C11892]	FALSE
CC(=O)NCC(=O)Nc1ccc2c(c1)C(=O)N(C1CCC(=O)NC1=O)C2 (centres unmarked) [C84967, 2-acetamido-N-[2-(2,6-dioxo-3-piperidyl)-3-oxo-isoindolin-5-yl]acetamide]	TRUE
Nc1nc(Nc2ccc3c(c2)CN(C2CCC(=O)NC2=O)C3=O)nc2sccc12 (centres unmarked) [C80379, 3-[5-[(4-aminothieno[2,3-d]pyrimidin-2-yl)amino]-1-oxo-isoindolin-2-yl]piperidine-2,6-dione]	TRUE
O=C1CCC(N2C(=O)c3ccccc3C2Nc2ccccc2)C(=O)N1 (centres unmarked) [C10537, 3-(1-anilino-3-oxo-isoindolin-2-yl)piperidine-2,6-dione]	FALSE
O=C1CCC(N2Cc3ccc(NCC(=O)N4CCc5ccccc5C4)cc3C2=O)C(=O)N1 (centres unmarked) [C95329, 3-[6-[[2-(3,4-dihydro-1H-isoquinolin-2-yl)-2-oxo-ethyl]amino]-1-oxo-isoindolin-2-yl]piperidine-2,6-]	FALSE
O=C1CCC(N2Cc3ccccc3C2=O)C(=O)N1 (single isomer, unassigned) [5′-OH-THL, 3-(1-oxoisoindolin-2-yl)piperidine-2,6-dione, reference compound]	FALSE
O=C1N=c2ccc(NC(=O)NCc3ccccc3)cc2=N1 [1-benzyl-3-(2-oxobenzimidazol-5-yl)urea]	FALSE
O=C1CCC(N2Cc3ccc(NCC(=O)N4CC5COCC5C4)cc3C2=O)C(=O)N1 (centres unmarked) [C95334, 3-[6-[[2-(1,3,3a,4,6,6a-hexahydrofuro[3,4-c]pyrrol-5-yl)-2-oxo-ethyl]amino]-1-oxo-isoindolin-2-yl]piperidine-2.6-dione]	FALSE
O=C1CCC(N2C(=O)CC3(CCOCC3)C2=O)C(=O)N1 (centres unmarked) [C64348, 2-(2,6-dioxo-3-piperidyl)-8-oxa-2-azaspiro[4.5]decane-1,3-dione]	FALSE
CC(=O)O.O=C1CCC(N2Cc3ccc(Nc4ncnc5ccccc45)cc3C2=O)C(=O)N1 (centres unmarked) [C80382 acetic acid salt, acetic acid; 3-[1-oxo-6-(quinazolin-4-ylamino)isoindolin-2-yl]piperidine-2,6-dione]	FALSE
O=C1c2c(F)c(F)c(F)c(F)c2C(=O)N1c1ccc(F)cc1F [C34491, 2-(2,4-difluorophenyl)-4,5,6,7-tetrafluoro-isoindoline-1,3-dione]	FALSE
O=C1CCC(N2Cc3ccc(N4CCNC4=O)cc3C2=O)C(=O)N1 (centres unmarked) [C84971, 3-[1-oxo-6-(2-oxoimidazolidin-1-yl)isoindolin-2-yl]piperidine-2,6-dione]	FALSE
O=C1CCC(N2C(=O)c3ccccc3C2C2=c3ccccc3=NC2)C(=O)N1 (centres unmarked) [C49713, 3-[1-(2H-indol-3-yl)-3-oxo-isoindolin-2-yl]piperidine-2,6-dione]	FALSE
CC(C)(C)OC(=O)CC1c2ccccc2C(=O)N1C1CCC(=O)NC1=O (centres unmarked) [C98053, t-butyl 2-[2-(2,6-dioxo-3-piperidyl)-3-oxo-isoindolin-1-yl]acetate]	FALSE
Cc1cc(Nc2ccc3c(c2)C(=O)N(C2CCC(=O)NC2=O)C3)ncn1 (centres unmarked) [C80384, 3-[6-[(6-methylpyrimidin-4-yl)amino]-1-oxo-isoindolin-2-yl] piperidine-2,6-dione]	FALSE
O=C1CCC(N2Cc3cc(O)ccc3C2=O)C(=O)N1 (centres unmarked) [C28891, 3-(5-hydroxy-1-oxo-isoindolin-2-yl)piperidine-2,6-dione]	TRUE
Nc1cccc2c1C(=O)N(C1CCC(=O)NC1=O)C2=O (centres unmarked) [POM, 4-amino-2-(2,6-dioxo-3-piperidyl)isoindoline-1,3-dione, reference compound]	TRUE
Cc1cccc2c1S(=O)(=O)N(C1CCC(=O)NC1=O)C2=O (centres unmarked) [C75688, 3-(7-methyl-1,1,3-trioxo-1,2-benzothiazol-2-yl)piperidine-2,6-dione]	FALSE
Cc1nc(N(C)C)cc2c1C(=O)N(C1CCC(=O)NC1=O)C2=O (centres unmarked) [C64376, 6-(dimethylamino)-2-(2,6-dioxo-3-piperidyl)-4-methyl-pyrrolo[3,4-c] pyridine-1,3-dione]	FALSE

— US20230111853A1, “COMPOUNDS MODULATING PROTEIN RECRUITMENT AND/OR DEGRADATION” (Orionis Biosciences, Inc., priority 2019, published 2023)
